Measurements from US20230234917A1, “ASPARAGINE DERIVATIVES AND METHODS OF USING SAME” (priority 2020, published 2023).

What was measured:
ClbP [1] = target: T1, ClbP (Escherichia coli, UniProt Q0P7K6); experiment: ClbP cell lysate activity (inhibition) assay, fluorogenic substrate; assay type: biochemical; details: ClbP Lysate Inhibition Assay: IC50, E. coli ClbP+ lysozyme-EDTA lysates, 5 μM fluorogenic substrate, inhibitor 0-300 μM, 37° C., singlicate
Protocol: Cell Lysate Activity Assay
(§1) 1) E. coli ClbP+ were taken from a frozen stock and streaked onto BHI plates. They were grown aerobically at 37° C. overnight in the incubator.
(§2) 1) A single colony was selected from the plate and inoculated into 30 mL LB in a 50 mL conical vial eight times (240 mL total). The bacteria were grown aerobically overnight (16-20 h) at 37° C. on a nutator with rocking.
1) The saturated overnight culture was centrifuged to create a firm pellet (3,200 g, 10 min, 4° C.). The supernatant was removed and then the pellet was resuspended in 30 mL sterile PBS.
2) The bacteria were centrifuged again (3,200 g, 10 min, 4° C.). The supernatant was removed, and the pellet was resuspended in sterile PBS buffer (3 mL) in each 8 tubes to make a tenfold concentrated bacterial solution.
3) A lysozyme-EDTA (LE) solution was made in ddH2O (0.05 mg/mL lysozyme, 0.25 M EDTA).
4) For each of the eight tubes, LE solution (3 mL) was mixed with concentrated bacterial solution (3 mL). This mixture was incubated at 37° C. for 30 min to generate the lysates.
5) The lysates (192 μL) were mixed with inhibitor (6 μL, final concentration was 300, 100, 33.3, 11.1, 3.7, 1.2, 0.4, or 0 μM). Fluorogenic substrate (2 μL, final concentration 5 μM) was immediately added across the plate to initiate the reaction. As a control, each plate contained Compound No. III in this dose response curve. The final concentration of bacterial lysates was fivefold concentrated compared to the original saturated overnight culture. Carryover from DMSO was 4% (v/v). All compounds were tested in singlicate.
(§3) 6) The plate was loaded into a spectrophotometer preheated to 37° C. The fluorescence was recorded every 2 min for 46 min. The excitation wavelength was 360 nm (20 nm bandwidth), the emission wavelength was 460 nm (20 nm bandwidth), the optics position was bottom, the gain was 65, the light source was a tungsten bulb, and the read speed was normal.
(§4) 7) The linear portion of the fluorescence increase was 0-20 min. The rate of fluorescence increase (A.U./min) for each well in an inhibitor series was normalized to the 0 μM inhibitor condition. The normalized activity as a function of inhibitor concentration was then fit to a three parameter IC50 curve in Graphpad Prism.
(§5) “A” indicates an IC50 value less than 100 μM, “B” indicates an IC50 between 100 and 300 μM, “C” indicates an IC50 above 300 μM.

ClbP [2] = target: T1, ClbP; experiment: ClbP whole cell activity (inhibition) assay, fluorogenic substrate; assay type: cell-based, E. coli
Protocol: Whole Cell Activity Assay
as §1, §2
1) The saturated overnight culture was centrifuged to create a firm pellet (3,200 g, 10 min, 4° C.). In a biosafety cabinet, the supernatant was removed and then the pellet was resuspended in 30 mL sterile PBS.
2) The bacteria were centrifuged again (3,200 g, 10 min, 4° C.). The supernatant was removed, and the pellet was resuspended in sterile PBS buffer (6 mL) in each of the 8 tubes. This fivefold concentrated bacterial solution was the working solution.
3) The bacterial working solution (192 μL) was mixed with inhibitor (6 μL, final concentration was 300, 100, 33.3, 11.1, 3.7, 1.2, 0.4, or 0 μM). Fluorogenic substrate (2 μL, final concentration 5 μM) was immediately added across the plate to initiate the reaction. As a control, each plate contained Compound No. III in this dose response curve. The bacterial concentration was fivefold concentrated compared to the original saturated overnight culture. Carryover from DMSO was 4% (v/v). All compounds were tested in singlicate.
as §3, with “4)” for “6)”
as §4, with “5)” for “7)”, “10-30” for “0-20”
as §5

Full-length WT ClbP = Full-length WT ClbP (Escherichia coli, UniProt Q0P7K6); experiment: ClbP molecular (purified protein) enzymatic inhibition assay, fluorogenic substrate; assay type: biochemical, E. coli
Protocol: ClbP Molecular (Purified Protein) Assay
1) Full-length WT ClbP was thawed on ice. A diluted enzyme solution (2 nM) was made by mixing 3.57 μL of enzyme with 20 mL of reaction buffer (50 mM Tris pH 8.0, 200 mM NaCl, 0.02% (w/v) n-dodecyl-b-D-maltoside (DDM)).
2) In a 96 well plate, the diluted protein solution (73.5 μL) was mixed with inhibitor (1.5 μL, of varying concentrations, see below) and preincubated for 15 min at room temperature. Then, reaction buffer (75 μL) containing 10 μM fluorogenic substrate was added to initiate the reaction. After addition of substrate, the final concentrations were 1 nM full-length WT ClbP, 5 μM fluorogenic substrate in 50 mM Tris pH 8.0, 200 mM NaCl, 0.02% (w/v) DDM, with either 0, 0.14, 0.41, 1.2, 3.7, 11, 33, or 100 μM inhibitor. For all conditions, the DMSO carryover was 2% (v/v) at the preincubation stage and 1% in the reaction stage. Compound No. III was always present as a control in each plate, and all compounds were tested in singlicate. In previous assays, the Km of the fluorogenic substrate was determined to be approximately 5 μM.
3) Immediately after addition of substrate to enzyme, the plate was transferred into a spectrophotometer held at room temperature. The fluorescence was recorded every 1.5 min for 15 min. The excitation wavelength was 360 nm (20 nm bandwidth), the emission wavelength was 440 nm (20 nm bandwidth), the optics position was bottom, the gain was extended, the light source was a xenon flash lamp, and the read speed was normal.
as §4, with “4)” for “7)”, “is at least from 0-6 min, so this time regime is used.” for “was 0-20 min.”
as §5

| SMILES | IC50 (ClbP [1]) [µM] | IC50 (ClbP [2]) [µM] | IC50 (Full-length WT ClbP) [µM] |
| --- | --- | --- | --- |
| CCCCCCCC(=O)N[C@H](CC(N)=O)C(=O)NCCC1CCN(C)CC1 [Compound CCXIX] | 100 to 300 | < 100 | < 100 |
| CCCCCCCC(=O)N[C@H](CC(N)=O)c1nnc(CCc2ccccc2)o1 [Compound CCXI] | > 300 | > 300 | 100 to 300 |
| NC(=O)C[C@@H](NC(=O)CCC1CCCCC1)C(=O)NCCc1ccccc1 [Compound CCXLIII] | < 100 | < 100 | < 100 |
| NC(=O)C[C@@H](NC(=O)CCC1CCCCC1)C(=O)NCCc1ccc(O)cc1 [Compound CCXLII] | < 100 | < 100 | < 100 |
| CCCCCCCC(=O)N[C@H](CC(N)=O)C(=O)N[C@@H](C)Cc1ccc(O)cc1 [Compound CCXLIV] | < 100 | < 100 | < 100 |
| CCCCCCCC(=O)N[C@H](CC(N)=O)C(=O)NCCc1ccc(OC)c(OC)c1 [Compound CCXLIX] | < 100 | < 100 | < 100 |
| NC(=O)C[C@@H](NC(=O)CCCC1CCCCCC1)C(=O)NCCc1ccc(O)cc1 [Compound CCXLI] | < 100 | < 100 | < 100 |
| CCCCCCCC(=O)N[C@H](CC(N)=O)C(=O)NCCc1cccc(OC)c1 [Compound CCXLVIII] | < 100 | 100 to 300 | < 100 |
| CCCCCCCC(=O)N[C@H](CC(=O)NC)C(=O)NCCc1ccc(O)cc1 [Compound CCXLVI] | 100 to 300 | < 100 | < 100 |
| CCCCCCCC(=O)N[C@H](CC(N)=O)C(=O)N[C@H](C)Cc1ccc(O)cc1 [Compound CCXLV] | < 100 | < 100 | < 100 |
| NC(=O)C[C@@H](NC(=O)/C=C/CC1CCCCCC1)C(=O)NCCc1ccc(O)cc1 [Compound CCXL] | < 100 | < 100 | < 100 |
| CCCCCCCC(=O)N[C@H](CC(N)=O)C(=O)NCCC1CCNCC1 [Compound CCXVIII] | < 100 | < 100 | 100 to 300 |
| CCCCCCCC(=O)N[C@H](CC(=O)NC)C(=O)NCCc1ccccc1 [Compound CCXVI] | 100 to 300 | < 100 | 100 to 300 |
| CCCCCCCC(=O)N[C@H](CC(N)=O)C(=O)NCCc1cccc(O)c1 [Compound CCXXIII] | < 100 | < 100 | < 100 |
| NC(=O)C[C@@H](NC(=O)CCCC1CCCCC1)C(=O)NCCc1ccc(O)cc1 [Compound CCXXII] | < 100 | < 100 | < 100 |
| CCCCCCCC(=O)N[C@H](CC(N)=O)C(=O)NCCc1ccccc1O [Compound CCXXIV] | < 100 | < 100 | < 100 |
| CCCCCCCCCC(=O)N[C@H](CC(N)=O)C(=O)NCCc1ccc(O)cc1 [Compound CCXXI] | < 100 | < 100 | < 100 |

| SMILES | IC50 (ClbP [1]) [µM] | IC50 (ClbP [2]) [µM] | IC50 (Full-length WT ClbP) [µM] |
| --- | --- | --- | --- |
| CCCCCCCC(=O)N[C@H](CC(N)=O)C(=O)NCCn1cccn1 [Compound CCXXVIII] | < 100 | < 100 | < 100 |
| CCCCCCCC(=O)N[C@H](CC(N)=O)C(=O)NCCc1c[nH]cn1 [Compound CCXXVII] | < 100 | < 100 | < 100 |
| CCCCCCCC(=O)N[C@H](CC(N)=O)C(=O)NCCc1ccc(O)c(O)c1 [Compound CCXXVI] | < 100 | < 100 | < 100 |
| CCCCCCCC(=O)N[C@H](CC(N)=O)C(=O)NCCc1ccc(O)cc1O [Compound CCXXV] | < 100 | < 100 | < 100 |
| CCCCCCCC(=O)N[C@H](CC(N)=O)C(=O)NCCc1nnn[nH]1 [Compound CCXXXIII] | < 100 | < 100 | < 100 |
| CCCCCCCC(=O)N[C@H](CC(N)=O)C(=O)NCCc1cncs1 [Compound CCXXXII] | < 100 | < 100 | < 100 |
| CCCCCCCC(=O)N[C@H](CC(N)=O)C(=O)NCCn1cnnc1 [Compound CCXXXIV] | > 300 | < 100 | 100 to 300 |
| NC(=O)C[C@@H](NC(=O)CCCC1CCCCCC1)C(=O)NCCc1ccccc1 [Compound CCXXXIX] | < 100 | < 100 | < 100 |
| CCCCCCCC(=O)N[C@H](CC(N)=O)C(=O)NCCc1ccco1 [Compound CCXXXI] | < 100 | < 100 | < 100 |
| NC(=O)C[C@@H](NC(=O)/C=C/CC1CCCCCC1)C(=O)NCCc1ccccc1 [Compound CCXXXVIII] | < 100 | < 100 | < 100 |
| CCCCCCCC(=O)N[C@H](CC(N)=O)C(=O)NCCc1ccc(OC)nc1 [Compound CCXXXVII] | < 100 | < 100 | < 100 |
| CCCCCCC(F)(F)C(=O)N[C@H](CC(N)=O)C(=O)NCCc1ccc(O)cc1 [Compound CCXXXVI] | < 100 | > 300 | < 100 |
| CCCCCCCC(=O)N[C@H](CC(N)=O)C(=O)NCCc1ccc(=O)[nH]c1 [Compound CCXXXV] | > 300 | < 100 | < 100 |
| CCCCCCCC(=O)N[C@H](CC(N)=O)C(=O)NCCc1cccnc1 [Compound CCXXX] | < 100 | < 100 | < 100 |
| CCCCCCCC(=O)N[C@H](CC(N)=O)C(=O)NCCN1CCNCC1 [Compound CCXX] | < 100 | < 100 | < 100 |
| CCCCCCCNC(=O)[C@H](CC(N)=O)NC(=O)Oc1ccccc1 [Compound CCX] | > 300 | > 300 | 100 to 300 |
| CCCCCCCC(=O)N[C@H](CC(N)=O)[C@H](O)CCCc1ccccc1 [Compound CXCII] | < 100 | > 300 | 100 to 300 |
